Patent publication US5064947A (priority 1990, dated 1991)
Read-outs that look alike come from different tables or passages of the source.

Assays:
[1] = tested on: A-2 receptors; conditions: cited from earlier work
[2] = target: T1, adenosine A-2 receptors (Rattus norvegicus, UniProt P30543); test: Affinity for brain adenosine A-2 receptors ([3H]NECA displacement, rat brain striatum membranes); assay type: binding
T1 construct: from tissue; host or cells: striatal membranes of young male rats (C-D strain, from Charles River)
Procedure: The pellet is finally resuspended in 40 vol. of 50mM Tris-HCl (pH 7.7) per gram of original wet weight of tissue.
Incubations are carried out at 25° C. for 60 minutes. Each tube is filtered through GF/B glass fiber filters using a vacuum. The filters are rinsed two times with 5 ml of the ice-cold buffer. […] The filters are counted by liquid scintillation spectrometry.
Specific binding of [3H]NECA is measured as the excess over blanks run in the presence of 100 μM 2-chloroadenosine. […] Specific binding to membranes is about 50% of the total bound.

[3] = target: T2, Adenosine A-1 receptor (Rattus norvegicus, UniProt P25099)
T2 sequence (P25099 1-326): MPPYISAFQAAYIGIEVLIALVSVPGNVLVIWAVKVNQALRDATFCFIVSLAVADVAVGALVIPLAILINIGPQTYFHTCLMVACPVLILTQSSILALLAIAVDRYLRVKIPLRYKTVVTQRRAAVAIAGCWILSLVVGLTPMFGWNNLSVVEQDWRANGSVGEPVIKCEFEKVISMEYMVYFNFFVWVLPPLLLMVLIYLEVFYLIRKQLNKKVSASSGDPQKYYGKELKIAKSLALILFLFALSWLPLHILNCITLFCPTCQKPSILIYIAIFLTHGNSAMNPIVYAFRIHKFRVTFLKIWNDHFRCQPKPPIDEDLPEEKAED

[4] = in vivo; cited from earlier work
[5] = tested on: A-1 receptors; conditions: cited from earlier work
[6] = ratio of A-2 Ki to A-1 Ki (selectivity)

T1 sequence (P30543 whole entry): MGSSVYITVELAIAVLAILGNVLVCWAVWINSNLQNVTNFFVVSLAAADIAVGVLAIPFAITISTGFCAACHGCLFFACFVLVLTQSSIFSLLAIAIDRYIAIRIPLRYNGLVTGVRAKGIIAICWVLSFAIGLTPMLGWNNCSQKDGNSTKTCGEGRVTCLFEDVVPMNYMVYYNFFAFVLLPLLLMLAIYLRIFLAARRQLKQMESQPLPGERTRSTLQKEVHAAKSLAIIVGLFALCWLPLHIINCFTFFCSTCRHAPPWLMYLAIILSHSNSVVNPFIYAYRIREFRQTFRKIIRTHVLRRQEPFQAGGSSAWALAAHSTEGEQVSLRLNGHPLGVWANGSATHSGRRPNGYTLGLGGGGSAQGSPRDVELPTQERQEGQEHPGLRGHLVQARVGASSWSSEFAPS

Compound: Nc1nc(Cl)nc2c1ncn2[C@@H]1O[C@H](CO)[C@@H](O)[C@H]1O [2-chloroadenosine]
- order of potency at A-2 receptors [1]: NECA>2-chloroadenosine>R-PIA>CHA

Compound: CCCOC1=Nc2c(cnn2-c2ccccc2)C2=N[C@@H](Cc3ccccc3)CN12 [Compound 2, (S)-2,7-dihydro-7-phenyl-2-(phenylmethyl)-5-propoxy-3H-imidazo[1,2-c]pyrazolo[4,3-e]pyrimidine]
- A-2 Ki/A-1 Ki [2, 6]: 0.18

Compound: C1=Nc2c(cnn2-c2ccccc2)C2=N[C@H](Cc3ccccc3)CN12 [Compound 3, (R)-2,7-dihydro-7-phenyl-2-(phenylmethyl)-3H-imidazo[1,2-c]pyrazolo[4,3-e]pyrimidine]
- A-2 Ki/A-1 Ki [2, 6]: 13.20

Compound: C1=Nc2c(ncn2-c2ccccc2)C2=N[C@H](Cc3ccccc3)CN12 [Compound 6, (R)-7,8-dihydro-3-phenyl-8-(phenylmethyl)-3H-diimidazo[1,2-c:4',5'-e]pyrimidine]
- A-2 Ki/A-1 Ki [2]: 16.40

Compound: CCCOC1=Nc2c(cnn2-c2ccccc2)C2=N[C@H](C)[C@@H](c3ccccc3)N12 [Compound 7, (2R-trans)-2,7-dihydro-2-methyl-3,7-diphenyl-5-propoxy-3H-Imidazo[1,2-c]pyrazolo[4,3-e]pyrimidine]
- A-2 Ki/A-1 Ki [2, 6]: 1.17

Compound: CCCOC1=Nc2c(ncn2-c2ccccc2)C2=N[C@@H](Cc3ccccc3)CN12 [Compound 12, (S)-7,8-dihydro-3-phenyl-8-(phenylmethyl)-5-propoxy-3H-diimidazo[1,2-c:4',5'-e]pyrimidine]
- Ki [3]: 9 µM
- Ki ([2]; [3H]NECA, rat brain striatum membranes, 25° C., 60 minutes, read-out: A-2 Receptor Ki): 1.6 µM
- A-2 Ki/A-1 Ki [2, 6]: 0.18

Compound: OC[C@H]1O[C@@H](n2cnc3c2N=CN2C[C@H](Cc4ccccc4)N=C32)[C@H](O)[C@@H]1O [Compound 13, (S)-7,8-dihydro-3-(β-D-ribofuranosyl)-8-(phenylmethyl)-3H-diimidazo[1,2-c:4',5'-e]pyrimidine]
- A-2 Ki/A-1 Ki [2]: 1.70

Compound: OC[C@H]1O[C@@H](n2cnc3c2N=CN2C[C@@H](Cc4ccccc4)N=C32)[C@H](O)[C@@H]1O [Compound 14, (R)-7,8-dihydro-3-(β-D-ribofuranosyl)-8-(phenylmethyl)-3H-diimidazo[1,2-c:4',5'-e]pyrimidine]
- A-2 Ki/A-1 Ki [2]: 5.50

Compound: CCNC(=O)[C@H]1O[C@@H](n2cnc3c(N)ncnc32)[C@H](O)[C@@H]1O [NECA, N-5'-ethylcarboxamidoadenosine]
- order of potency at A-2 receptors [1]: NECA>2-chloroadenosine>R-PIA>CHA

Compound: CCCn1c(=O)c2[nH]c(-c3ccc(OCC(=O)NCCN)cc3)nc2n(CCC)c1=O [XAC, amino congener of 8-phenyl-1,3-dipropyl-xanthine]
- antagonizing the effects of adenosine analogs on heart rate versus blood pressure [4]: much more potent in antagonizing the effects of adenosine analogs on heart rate than on blood pressure
- higher affinity for A-1 adenosine receptors vs A-2 ([5]; A-1 brain membranes versus A-2 brain slice assay): 40 fold

Compound: CCCn1c(=O)c2[nH]c(-c3ccc(OCC(=O)O)cc3)nc2n(CCC)c1=O [XCC, carboxylic acid congener of 8-phenyl-1,3-dipropyl-xanthine]
- adenosine receptor selectivity ([5]; A-1 vs A-2, in vitro): non-selective
